Reference: US10092506B2, “Encapsulation of lipophilic or amphiphilic therapeutic agents in nano-emulsion” (COMMISSARIAT A L'ENERGIE ATOMIQUE ET AUX ENERGIES …, priority 2008, dated 2018)

Columns and labels:
[1] = fluorescence quantum yield with reference to Nile Blue perchlorate in ethanol; type: physicochemical; settings: in toluene
Procedure: The fluorescence quantum yield of various photosensitizers formulated in a nano-emulsion and in solvent was measured with reference to Nile Blue perchlorate in ethanol, λexc 605 nm (Fref=0.27).

[2] = physico-chemical behaviour of taxol under nano-emulsion preparation and analysis conditions; type: physicochemical; settings: after ultrasound, heat treatment (4 h at 60° C.) and analytical conditions (acetonitrile/water mixture)

Fluorescence quantum yield F [1]	degradation of taxol [2]	SMILES
0.38	–	C1=Cc2nc1c(-c1ccccc1)c1ccc([nH]1)c(-c1ccccc1)c1nc(c(-c3ccccc3)c3ccc([nH]3)c2-c2ccccc2)CC1 [mTPC, meso-tetraphenylchlorine]
–	absence of degradation	CC(=O)O[C@H]1C(=O)[C@@]2(C)[C@H]([C@H](OC(=O)c3ccccc3)[C@]3(O)C[C@H](OC(=O)[C@H](O)[C@@H](NC(=O)c4ccccc4)c4ccccc4)C(C)=C1C3(C)C)[C@]1(OC(C)=O)CO[C@@H]1C[C@@H]2O [paclitaxel]
